Test results published in ChEMBL document CHEMBL4371067, “Discovery of N-substituted 7-azaindoles as Pan-PIM kinases inhibitors - Lead optimization - Part III” (Bioorg Med Chem Lett, 2019).
≈ marks a conversion by molar mass, not a printed value. Calls of active or inactive are those of the source. The calls are words filed in the database; no cut-off is given here.

Columns and labels:
[1] = Cmax in rat at 10 mg/kg, po administered as single dose; assay type: ADME, organism-based; parameters: dose 10 mg/kg, route oral; settings: in vivo
[2] = AUC (0 to infinity) in rat at 3 mg/kg, iv administered as single dose; assay type: ADME, organism-based; parameters: dose 3 mg/kg, route intravenous, time infinity; settings: in vivo
[3] = Half life in rat at 10 mg/kg, po administered as single dose; assay type: ADME, organism-based; settings: in vivo
[4] = target: Voltage-gated inwardly rectifying potassium channel KCNH2 (Homo sapiens, UniProt Q12809); assay: Inhibition of human ERG
[5] = Oral bioavailability in rat at 10 mg/kg administered as single dose; assay type: ADME, organism-based; settings: in vivo
[6] = test system: KG-1; assay: Antiproliferative activity against human KG1 cells; assay type: functional, cell-based
[7] = target: Serine/threonine-protein kinase pim-1 (Homo sapiens, UniProt P11309); assay: Inhibition of PIM1 (unknown origin) assessed as reduction in BAD phosphorylation at Ser-112 residue by TR-FRET assay
[8] = target: Serine/threonine-protein kinase PIM (Homo sapiens, UniProt P11309+Q9P1W9+Q86V86); assay: Inhibition of PIM in human KG1 cells assessed as reduction in pS6 level; assay type: cell-based
[9] = Volume of distribution at steady state in rat at 3 mg/kg, iv administered as single dose; assay type: ADME, organism-based; settings: in vivo, read-out: Vdss
[10] = Permeability in human Caco2/TC7 cells at 5 uM; assay type: ADME, cell-based; settings: for Papp at 5 µM: Caco-2, read-out: permeability; for permeability: caco2/tc7, 5 µM, 5 µM
[11] = target: Serine/threonine-protein kinase pim-2 (Homo sapiens, UniProt Q9P1W9); assay: Inhibition of PIM2 (unknown origin) assessed as reduction in BAD phosphorylation at Ser-112 residue by TR-FRET assay
[12] = Clearance in rat at 3 mg/kg, iv administered as single dose; assay type: ADME, organism-based; settings: in vivo
[13] = Half life in rat at 3 mg/kg, iv administered as single dose; assay type: ADME, organism-based; settings: in vivo
[14] = Clearance in human liver microsomes assessed as drug extraction at 5 uM; assay type: ADME, Microsome; settings: for hepatic extraction ratio at 5 µM: liver microsomes, read-out: CLH; for CLH: microsomes, 5 µM
[15] = Clearance in mouse liver microsomes assessed as drug extraction at 5 uM; assay type: ADME, Microsome; settings: for hepatic extraction ratio at 5 µM: liver microsomes, read-out: CLH; for CLH: microsomes, 5 µM
[16] = AUC (0 to infinity) in rat at 10 mg/kg, po administered as single dose; assay type: ADME, organism-based; parameters: dose 10 mg/kg, route oral, time infinity; settings: in vivo
[17] = Thermodynamic solubility in pH 7.4 solution; assay type: physicochemical; settings: buffer; for solubility thermodynamic: read-out: Therm_solubility
[18] = target: T1, hERG (KCNH2) (Homo sapiens, UniProt Q12809); assay: Inhibition of human ERG at 1 uM relative to control
[19] = target: T1, hERG (KCNH2); assay: Inhibition of human ERG at 10 uM relative to control
[20] = Efflux ratio of permeability in human Caco2/TC7 cells at 5 uM; assay type: ADME, cell-based; settings: Caco-2
[21] = test system: Mus musculus; assay: In vivo inhibition of PIM in mouse xenografted with human KG1 cells assessed as reduction in phosphorylated BAD level at 25 mg/kg, po administered as single dose and measured up to 24 hrs post dose relative to control; assay type: functional

Row | Compound | IC50 [7] [nM] | EC50 [8] [nM] | Papp at 5 µM [10] [×10⁻⁶ cm/s] | IC50 [11] [nM] | hepatic extraction ratio at 5 µM [14] | hepatic extraction ratio at 5 µM [15] | Ki [7] [nM] | IC50 [4] [nM] | EC50 ([6]; Homo sapiens, KG-1) [nM] | inhibition at 1 µM [18] [%] | inhibition at 10 µM [19] [%] | also measured
1 | NC(=O)c1cc(Cl)c2c(Cl)c(C#CC3CCOCC3)n([C@H]3CCCNC3)c2n1 | 1.5 | 53 | 3.4 | 10.2 | 0.07 | 0.13 |  | 1700 | 69 |  |  | Cmax [1]: 91 ng/mL; AUC(0-inf) [2]: 440 ng·h/mL; half-life [3]: 10.2 h; bioavailability [5]: 67%; Vd [9]: 63 L/kg; clearance [12]: 102 mL/min/kg; half-life [13]: 7.41 h; AUC(0-inf) [16]: 979 ng·h/mL
2 | CN1CC(C#Cc2c(Cl)c3c(Cl)cc(C(N)=O)nc3n2[C@H]2CCCNC2)CC1=O (some centres not stated) | 3.1 | 128 | 0.05 | 17.5 | 0.05 | 0.22 | 1.2 | > 20000 | 155 |  |  | 
3 | NC(=O)c1cc(Cl)c2c(Cl)c(C#CC3CCCO3)n([C@H]3CCCNC3)c2n1 (stereo in doubt; 20a) | 4.4 | 137 | 3.2 | 21 |  |  |  |  |  |  |  | solubility thermodynamic [17]: 207 µM (≈ 84.3 µg/mL); EC50 ([6]; kg-1): 223 nM
4 | CC(C)(CC#Cc1c(Cl)c2c(Cl)cc(C(N)=O)nc2n1[C@H]1CCCNC1)C(N)=O | 4.7 | 133 | 0.4 | 21 | 0.01 | 0.06 |  | > 10000 | 269 |  |  | 
5 | COC(C)(C)CC#Cc1c(Cl)c2c(Cl)cc(C(N)=O)nc2n1[C@H]1CCCNC1 | 2.3 | 61 | 4.5 | 10.4 | 0.12 | 0.33 |  | 4000 | 172 |  |  | solubility thermodynamic [17]: 1.2 µM (≈ 0.508 µg/mL)
6 | NC(=O)c1cc(Cl)c2c(Cl)c(C#CC3CCCO3)n([C@H]3CCCNC3)c2n1 (stereo in doubt; 20b) | 2.2 | 69 |  | 7.4 |  |  | 1.3 |  |  |  |  | Cmax [1]: 54 ng/mL; AUC(0-inf) [2]: 324 ng·h/mL; half-life [3]: 3.63 h; Therm_solubility [17]: 333 µM; bioavailability [5]: 30%; EC50 ([6]; kg-1): 91 nM; Vd [9]: 19.6 L/kg; permeability [10]: 33 ×10⁻⁷ cm/s; clearance [12]: 150 mL/min/kg; half-life [13]: 2.32 h; CLH [14]: 24%; CLH [15]: 37%; AUC(0-inf) [16]: 326 ng·h/mL
7 | NC(=O)c1cc(Cl)c2c(Cl)c(C#CC3COCCO3)n([C@H]3CCCNC3)c2n1 (stereo in doubt; 22a) | 2.3 | 70 |  | 8.8 | 0.1 |  |  | 1400 |  |  |  | EC50 ([6]; kg-1): 77 nM; permeability [10]: 81 ×10⁻⁷ cm/s; CLH [15]: 30%
8 | NC(=O)c1cc(Cl)c2c(Cl)c(C#CCN3CCCC3=O)n([C@H]3CCCNC3)c2n1 | 2 | 93 | 0.01 | 6.7 | 0.03 | 0.26 |  | > 20000 | 178 |  |  | 
9 | CC(O)CC#Cc1c(Cl)c2c(Cl)cc(C(N)=O)nc2n1[C@H]1CCCNC1 (some centres not stated) | 1 | 32 | 0.24 | 6.1 | 0.06 |  | 0.6 |  | 48 | 13 | 23 | solubility thermodynamic [17]: 760 µM (≈ 300 µg/mL); efflux ratio at 5 µM [20]: 53
10 | NC(=O)c1cc(Cl)c2c(Cl)c(C#CC3CNCCO3)n([C@H]3CCCNC3)c2n1 (stereo in doubt; 29b) | 1.4 | 51 |  | 7.6 |  |  | 0.9 | > 20000 |  |  |  | EC50 ([6]; kg-1): 197 nM; permeability [10]: 2 ×10⁻⁷ cm/s; CLH [14]: 0%; CLH [15]: 15%
11 | CC1(CC#Cc2c(Cl)c3c(Cl)cc(C(N)=O)nc3n2[C@H]2CCCNC2)COC1 | 2.4 | 33 | 1.2 | 15.7 | 0.12 | 0.35 |  | 5000 | 289 |  |  | 
12 | CC(C)(O)C#Cc1c(Cl)c2c(Cl)cc(C(N)=O)nc2n1[C@H]1CCCNC1 | 2.2 | 36 | 0.14 | 9.9 | 0 |  |  |  | 302 | 20 | 47 | 
13 | COCC(C)(C)C#Cc1c(Cl)c2c(Cl)cc(C(N)=O)nc2n1[C@H]1CCCNC1 | 1.6 | 98 | 4.8 | 4 | 0.1 | 0.32 |  | 1100 | 219 |  |  | 
14 | NC(=O)c1cc(Cl)c2c(Cl)c(C#CCCO)n([C@H]3CCCNC3)c2n1 | 0.6 | 18 | 0.18 | 2.7 | 0 |  | 0.1 |  | 56 | 12 | 25 | solubility thermodynamic [17]: 144 µM (≈ 54.9 µg/mL); efflux ratio at 5 µM [20]: 8.8
15 | CC1(C#Cc2c(Cl)c3c(Cl)cc(C(N)=O)nc3n2[C@H]2CCCNC2)COC1 | 1.6 | 37 | 2.9 | 5.7 | 0.05 | 0.19 | 1.2 | 3000 | 119 |  |  | 

Continued, in another order:

Row | IC50 [7] [nM] | EC50 [8] [nM] | Papp at 5 µM [10] [×10⁻⁶ cm/s] | IC50 [11] [nM] | hepatic extraction ratio at 5 µM [14] | hepatic extraction ratio at 5 µM [15] | Ki [7] [nM] | Compound | IC50 [4] [nM] | EC50 ([6]; Homo sapiens, KG-1) [nM] | inhibition at 1 µM [18] [%] | inhibition at 10 µM [19] [%] | also measured
16 | 5.8 | 90 | 6.5 | 29.4 | 0.03 | 0.08 |  | CC(C)(C#N)CC#Cc1c(Cl)c2c(Cl)cc(C(N)=O)nc2n1[C@H]1CCCNC1 | 3000 | 113 |  |  | 
17 | 2.3 | 95 |  | 6 |  |  |  | NC(=O)c1cc(Cl)c2c(Cl)c(C#CC3COCCO3)n([C@H]3CCCNC3)c2n1 (stereo in doubt; 22b) |  |  | 20 | 86 | EC50 ([6]; kg-1): 203 nM; permeability [10]: 9 ×10⁻⁷ cm/s; CLH [14]: 10%; CLH [15]: 4%
18 | 2.8 | 283 |  | 6.1 |  | 0.22 |  | NC(=O)c1cc(Cl)c2c(Cl)c(C#CC3CNCCO3)n([C@H]3CCCNC3)c2n1 (stereo in doubt; 29a) | 6000 | 365 |  |  | permeability [10]: 8 ×10⁻⁷ cm/s; CLH [14]: 6%
19 | 0.7 | 28 | 3 | 9 | 0.21 |  |  | NC(=O)c1cc(Cl)c2c(Cl)c(C#CC3CC3)n([C@H]3CCCNC3)c2n1 |  | 207 | 53 | 97 | solubility thermodynamic [17]: 13 µM (≈ 4.9 µg/mL); inhibition [21]: Active; efflux ratio at 5 µM [20]: 2.5
20 | 1.7 | 59 | 0.08 | 11 | 0 |  | 3 | NC(=O)c1cc(Cl)c2c(Cl)c(C#CCO)n([C@H]3CCCNC3)c2n1 |  | 301 | 22 | 28 | efflux ratio at 5 µM [20]: 120
21 | 1.1 | 13 | 0.34 | 9.3 | 0 |  | 0.7 | CC(O)C#Cc1c(Cl)c2c(Cl)cc(C(N)=O)nc2n1[C@H]1CCCNC1 (some centres not stated) |  | 147 | 9 | 20 | solubility thermodynamic [17]: 206 µM (≈ 78.5 µg/mL); efflux ratio at 5 µM [20]: 37
